Read-outs that look alike come from different tables or passages of the source.

For 8 compounds, EC50 results are on record in patent US12441730B2, “PRMT5 inhibitors” (Merck Sharp & Dohme LLC, priority 2019, dated 2025).

Assay [1] deals with symmetric dimethylation of arginine (SDMA) of PRMT5 substrates in MCF-7 cells. Briefly: PRMT5 Cell Target Engagement (TE) Assay. Type of assay: cell-based. As to conditions: 3 days treatment, SDMA high content imaging. An outline of the steps: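 Readout is single-cell nuclear symmetric-dimethylarginine immunofluorescence (Alexa488), normalized to DMSO-treated cells. Compounds were applied to MCF-7 cells for 3 days at 37 °C, top concentration 10000 nM in 1:3 steps over ten points; curves fitted with 4-parameter robust fit.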

Assay [2] has as its target T1, Full-length (FL)-PRMT5-MEP50 enzyme complex (Homo sapiens, UniProt O14744).
T1 construct: Full-length (FL)-PRMT5-MEP50 enzyme complex (recombinant proteins from baculovirus-transfected Sf21 cells: FL-PRMT5; MW=73837 kDa and FL-MEP50; MW=38614); made in house; host or cells: baculovirus-transfected Sf21 cells
Briefly: PRMT5-MEP50 Enzyme Methylation Assay (Version B). In kind it is biochemical. As to the method: PRMT5-MEP50 Enzyme Methylation Assay (Version B)
PRMT5/MEP50 biochemical assay is a direct measurement of the methylation activity of the enzyme complex on a short peptide substrate derived from the N-terminus of H4 histone. Methylation experiment was performed with recombinant protein. The assessment of inhibitory effect (IC50) of small molecules was measured by the effectiveness of the compounds to inhibit this reaction.
In this assay, the potency (IC50) of each compound was determined from a twenty-point (1:2 serial dilution; top compound concentration of 100000 nM) titration curve using the following outlined procedure. To each well of a white ProxiPlus 384 well-plate, 100 nL of compound (1% DMSO in final assay volume of 10 μL) was dispensed, followed by the addition of 8 μL of 1× assay buffer (50 mM Bicine pH 8.0, 1 mM DTT, 0.004% Tween20, 0.01% BSA) containing 0.5 nM of Full-length (FL)-PRMT5-MEP50 enzyme complex (recombinant proteins from baculovirus-transfected Sf21 cells: FL-PRMT5; MW=[…] and FL-MEP50; MW=38614). Plates were sealed and placed in a 37° C. humidified chamber for 30 minutes pre-incubation with compounds. Subsequently, each reaction was initiated by the addition of 2 μL 1× assay buffer containing 75 nM biotinylated H4R3 (Me1) peptide, and 15 μM S-(5′-Adenosyl)-L-Methionine Chloride (SAM). The final reaction in each well of 10 μL consists of 0.5 nM PRMT5-MEP50, 75 nM biotinylated-peptide, and 15 μM SAM. Methylation reactions were allowed to proceed for 150 minutes in a sealed plate at 37° C. Reactions were immediately quenched by the addition of 1 μL of 10% formic acid. Plates were then frozen and shipped to SAMDI™ Tech Inc. to determine the percent conversion from […]. EC50 values were determined by non-linear regression according to models for either sigmoidal (4 parameters) or biphasic (7 parameters) dose-response curves.

[3] abbreviates: second value of 7 parameter biphasic fit, read-out: Enzyme Methylation Assay Version B (EC50 2).
Setting [4] is: single EC50 = 4 parameter single site sigmoidal fit, EC50 1 = first value of 7 parameter biphasic fit, read-out: Enzyme Methylation Assay Version B (EC50 or EC50 1).

T1 sequence (O14744 whole entry): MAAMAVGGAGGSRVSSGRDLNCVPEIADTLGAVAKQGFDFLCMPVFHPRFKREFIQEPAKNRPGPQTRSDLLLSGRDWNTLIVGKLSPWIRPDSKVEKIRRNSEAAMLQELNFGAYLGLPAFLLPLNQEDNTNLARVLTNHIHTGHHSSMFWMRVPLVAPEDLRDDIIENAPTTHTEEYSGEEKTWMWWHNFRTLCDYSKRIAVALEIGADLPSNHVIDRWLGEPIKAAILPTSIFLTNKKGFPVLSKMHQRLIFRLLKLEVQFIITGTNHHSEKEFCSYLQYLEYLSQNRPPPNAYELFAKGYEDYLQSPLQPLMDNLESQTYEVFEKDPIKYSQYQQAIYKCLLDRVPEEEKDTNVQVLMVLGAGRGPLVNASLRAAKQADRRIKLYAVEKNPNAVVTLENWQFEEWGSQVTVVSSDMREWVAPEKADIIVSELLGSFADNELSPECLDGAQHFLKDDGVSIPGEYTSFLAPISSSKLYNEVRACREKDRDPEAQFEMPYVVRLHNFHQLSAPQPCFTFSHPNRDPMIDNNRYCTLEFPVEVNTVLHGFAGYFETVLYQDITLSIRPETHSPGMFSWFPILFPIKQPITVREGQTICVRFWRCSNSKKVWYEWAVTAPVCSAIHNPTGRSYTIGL
T1 sequence (Q9BQA1 whole entry partner): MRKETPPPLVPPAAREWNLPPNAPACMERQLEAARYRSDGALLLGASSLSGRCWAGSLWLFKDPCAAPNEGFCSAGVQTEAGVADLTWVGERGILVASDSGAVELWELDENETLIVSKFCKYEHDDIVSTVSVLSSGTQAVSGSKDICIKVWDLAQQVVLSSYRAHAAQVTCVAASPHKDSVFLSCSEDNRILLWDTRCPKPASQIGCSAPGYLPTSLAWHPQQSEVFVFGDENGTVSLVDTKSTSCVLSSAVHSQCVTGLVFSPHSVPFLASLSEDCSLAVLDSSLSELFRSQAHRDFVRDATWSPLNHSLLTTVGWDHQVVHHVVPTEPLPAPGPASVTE

As to `CCOc1cc(C(=O)N2C3CCC2COC3)ccc1C(=O)N1CCC2(Cc3ccccc3CN2)C(O)C1` (single isomer, unassigned) [Example 89, A diastereomer of {3-ethoxy-4-[(3′-hydroxy-1,4-dihydro-1′H,2H-spiro[isoquinoline-3,4′-piperidin]-1′-yl)carbonyl]phenyl}(3-oxa-8-azabicyclo[3.2.1]oct-8-yl)methanone], the figures for the 50% effective concentration (EC50) in assay [1], in assay [2] (setting [3]) and in assay [2] (setting [4]) were 6.88 nM, 1980 nM and 4.81 nM, respectively.
As to `CC(=O)N1CCC(Nc2cc(C(=O)N3CCC4(Cc5ccccc5CN4)C(O)C3)ncn2)CC1` (single isomer, unassigned) [Example 90, A diastereomer of 1-[4-({6-[(3′-hydroxy-1,4-dihydro-1′H,2H-spiro[isoquinoline-3,4′-piperidin]-1′-yl)carbonyl]-4-pyrimidinyl}amino)-1-piperidinyl]ethanone], the EC50 in assay [1] is ≥ 10000 nM; in assay [2] (setting [4]), 206 nM.
As for `CC(=O)N1CCC(Nc2cc(C(=O)N3CCC4(Cc5ccccc5CN4)C(O)C3)ncn2)CC1` (single isomer, unassigned) [Example 91, A diastereomer of 1-[4-({6-[(3′-hydroxy-1,4-dihydro-1′H,2H-spiro[isoquinoline-3,4′-piperidin]-1′-yl)carbonyl]-4-pyrimidinyl}amino)-1-piperidinyl]ethanone], the EC50 came out at 305 nM in assay [1], 513 nM in assay [2] (setting [3]) and 1.65 nM in assay [2] (setting [4]).
For `CC(=O)N1CCC(Nc2cc(C(=O)N3CCC4(Cc5ccccc5CN4)C(O)C3)ncn2)CC1` (single isomer, unassigned) [Example 92, A diastereomer of 1-[4-({6-[(3′-hydroxy-1,4-dihydro-1′H,2H-spiro[isoquinoline-3,4′-piperidin]-1′-yl)carbonyl]-4-pyrimidinyl}amino)-1-piperidinyl]ethanone], the EC50 was ≥ 10000 nM in assay [1] and 944 nM in assay [2] (setting [4]).
Take `CC(=O)N1CCC(Nc2cc(C(=O)N3CCC4(Cc5ccccc5CN4)C(O)C3)ncn2)CC1` (single isomer, unassigned) [Example 93, A diastereomer of 1-[4-({6-[(3′-hydroxy-1,4-dihydro-1′H,2H-spiro[isoquinoline-3,4′-piperidin]-1′-yl)carbonyl]-4-pyrimidinyl}amino)-1-piperidinyl]ethanone]: the EC50 in assay [1] was 27.3 nM; in assay [2] (setting [3]) it was 1070 nM; in assay [2] (setting [4]) it was 3.11 nM.
With `CC(=O)N1CCC(Nc2cc(C(=O)N3CC[C@]4(Cc5ccccc5CN4)[C@H](O)C3)ccn2)C(F)(F)C1` (single isomer, unassigned) [Example 96, 1—((S or R)-3,3-difluoro-4-((4-((3R,3′R)-3′-hydroxy-1,4-dihydro-2H-spiro[isoquinoline-3,4′-piperidine]-1′-carbonyl)pyridin-2-yl)amino)piperidin-1-yl)ethan-1-one], the EC50 was 767 nM in assay [1], 34300 nM in assay [2] (setting [3]) and 19.7 nM in assay [2] (setting [4]).
Take `CC(=O)N1CCC(Nc2cc(C(=O)N3CC[C@]4(Cc5ccccc5CN4)[C@H](O)C3)ccn2)C(F)(F)C1` (single isomer, unassigned) [Example 97, 1—((S or R)-3,3-difluoro-4-((4-((3R,3′R)-3′-hydroxy-1,4-dihydro-2H-spiro[isoquinoline-3,4′-piperidine]-1′-carbonyl)pyridin-2-yl)amino)piperidin-1-yl)ethan-1-one]: the EC50 in assay [1] stood at 216 nM; in assay [2] (setting [3]), 7410 nM; in assay [2] (setting [4]) it was 4.54 nM.
The matching figures for `O=C(c1ccc(C(=O)N2C3CCC2COC3)cc1)N1CCC2(Cc3ccccc3CN2)C(O)C1` (single isomer, unassigned) [Example 149, (3′-hydroxy-1,4-dihydro-1′H,2H-spiro[isoquinoline-3,4′-piperidin]-1′ -yl)[4-(3-oxa-8-azabicyclo[3.2.1]oct-8-ylcarbonyl)phenyl]methanone]: 9840 nM, ≥ 100000 nM and 298 nM.
